Results: patent US20100221821A1, “METHODS AND COMPOSITIONS RELATED TO RIBOSWITCHES THAT CONTROL ALTERNATIVE SPLICING AND RNA PROCESSING” (YALE UNIVERSITY, priority 2007, published 2010)
Read-outs that look alike come from different tables or passages of the source. Values belong to the compound of their own block, whether it stands above or below them.

Experiments:
[1] = tested on: THIC promoter from A. thaliana; settings: 100 μM thiamin, 9 day old seedlings
From the text: A construct consisting of a 1595 by fragment of the THIC promoter from A. thaliana was fused to the reporter gene β-glucuronidase (GUS) and transformed into A. thaliana. […] Data are mean values from three different transgenic lines and from three independent experiments. Error bars represent standard deviation.

[2] = tested on: altered TPP aptamer in THIC-III RNA from A. thaliana; assay: In-line probing of TPP binding by the spliced (altered) TPP aptamer of THIC type III RNA; design: species or system Arabidopsis thaliana
From the text: (B) In-line probing analysis of TPP binding by the spliced aptamer depicted in (A). Lanes include RNAs loaded after no reaction (NR), after partial digestion with RNase T1 (T1), or after partial digestion with alkali (^−OH). Sites 1 and 2 were quantified to establish the KD as shown in (C). (C) Plot indicating the normalized fraction of RNA spontaneously cleaved versus the concentration of TPP for sites 1 and 2 in (B).
In-line probing (Soukup and Breaker, 1999) was used to determine whether this altered aptamer retains TPP binding activity.
In-line probing assays were conducted essentially as described previously (Sudarsan et al., 2003; Winkler et al., 2002). […] For in-line probing analysis, the labeled RNA was incubated at room temperature for 40 hours in 50 mM Tris-HCl (pH 8.3 at 23° C.), 20 mM MgCl2, and 100 mM KCl in the absence or presence of varying concentrations of TPP. Cleavage products were resolved by denaturing 10% PAGE, visualized by PhosphorImager (GE Healthcare), and quantitated using ImageQuant software. The apparent KD value, reflecting the concentration of TPP needed to half-maximally modulate RNA structure, was determined by plotting the normalized fraction of RNA cleaved versus the logarithm of TPP concentration.

[3] = tested on: THIC transcripts; settings: seedlings on thiamin-supplemented medium
Procedure: (§1) (A) qRT-PCR analysis was conducted on THIC transcripts from A. thaliana seedlings grown for 14 days on medium supplemented with 0, 0.1, and 1 mM thiamin. Total THIC transcripts and separately types I, II and III RNAs were detected using different primer combinations. cDNAs were generated using a polyT primer or random hexamers for detection of type I RNAs. Expression was normalized for each primer combination to the value measured using medium with no thiamin supplementation (open bars). Values are averages from three independent experiments and error bars represent standard deviation. (B) Northern blot analysis of THIC transcripts from the same samples described in (A). 20 μg total RNA was loaded per lane and analyzed using probes binding to the coding region of THIC, the extended 3′ UTR of types I and III RNAs, or the control transcript EIF4A1. […] (C) qRT-PCR analysis of the time-dependent effects of thiamin treatment on THIC transcripts from A. thaliana. Seedlings were grown for 14 days on thiamin free medium and subsequently sprayed with 50 μM thiamin and 0.25 mg ml^−1 Tween 80. Control seedlings were treated with a solution containing only Tween 80. Samples were collected after 4 h and 26 h and subjected to qRT-PCR analysis. Amounts of THIC transcripts were analyzed from cDNAs generated with polyT primer and normalized to the values of the control samples without application of thiamin (open bars). Values are averages from three independent experiments and error bars represent standard deviation. (D) Relative changes of the levels of THIC transcript types in wild-type (WT) and thiamin pyrophosphokinase double knockout (TPK-KO) A. thaliana plants. Seedlings were grown for 12 days on thiamin free medium and amounts of THIC transcript types were analyzed by qRT-PCR. Data were normalized to the values for the WT samples and reflect averages from three replicates, with error bars representing standard deviation.

[4] = tested on: THIC TPP riboswitch (3' region of AtTHIC fused to EGFP)
Procedure: (A) Leaves from stably transformed A. thaliana lines expressing a reporter fusion of the complete 3′ region of AtTHIC fused to the 3′ end of EGFP were abscised and incubated with the petioles in water or in water supplemented with 0.02% thiamin. EGFP fluorescence was assessed at 0 h, 48 h, and 72 h after onset of treatment. One representative set of data from three repeats is shown, and the numbers identify different leaves from one transgenic line. (B) Quantitation of EGFP fluorescence of leaves depicted in (A) at three time points. The data represent average fluorescence intensity and standard deviation for each leaf. The plot also depicts average background fluorescence of WT leaves. (C) qRT-PCR analysis of total EGFP and THIC transcripts from leaves incubated for 72 h in water or 0.02% thiamin. Transcript amounts were standardized to an internal reference transcript and normalized to transcript abundance in water treated samples. Values are averages from four independent experiments using different transgenic lines and error bars represent standard deviation. (D,E) RT-PCR analysis of different 3′ UTRs of EGFP and THIC transcript types from A. thaliana reporter transformants grown in the absence of exogenous thiamin. For cDNA generation, a polyT primer, random hexamers or two different gene specific primers (binding either 221 or 882 nts downstream of the end of the aptamer) were used as indicated. The forward primers were specific for the end of the last exon of the coding region of EGFP (left) or THIC (right), whereas the reverse primer was either a polyT primer (D) or homologous to a region 221 nts downstream of the end of the aptamer (E). RT-PCR products were separated and visualized as described in the description of FIG. 2. M designates the marker lanes containing DNAs of 100 base-pair increments. No RT indicates a control reaction using the RNA without reverse transcription as a template source. I-1 and I-2 represent type I RNAs with the upstream intron following the stop codon unspliced or spliced, respectively.
(A) Secondary structure model and sequence of the WT TPP aptamer from A. thaliana genomic sequence and located in the 3′ region of THIC that was fused to EGFP (SEQ ID NOs: 32 and 33). […] (B) Quantitation of EGFP fluorescence in leaves from A. thaliana transformants expressing reporter constructs containing the WT aptamer sequence or mutated versions M2, M3 and M4. Leaves were excised and incubated with their petioles in water or 0.02% thiamin for 72 h before fluorescence analysis. Values are averages from at least three independent experiments using different transgenic lines. Error bars represent standard deviation. (C) qRT-PCR analyses of EGFP and THIC transcript amounts in A. thaliana transformants described in (B). Transcript amounts (standardized using a reference transcript) were normalized to transcript abundance in water treated samples. Values are averages from two to four independent experiments using different transgenic lines. Error bars represent standard deviation. (D,E) RT-PCR analyses of 3′ UTRs of EGFP and THIC transcripts from A. thaliana transformants with mutations M2 or M3. RT-PCR analyses were performed as described in the description of FIGS. 5D and 5E. Forward primers were homologous to the end of the last exon of the coding region of EGFP or THIC, and the reverse primer was a polyT primer (D) or complementary to a region 221 nts downstream of the end of the aptamer (E). Kbp designates kilobase pairs.

[5] = tested on: THIC transcripts
Procedure: as §1
(A) qRT-PCR analysis of total THIC transcripts from plants incubated for 48 h under continuous light. Plants were grown for 11 days in light/dark cycles (16/8 h) on medium without thiamin or medium supplemented with 100 μM thiamin. On the morning of the 12th day, plants were transferred to continuous light and samples were taken every 3 hours. Expression was normalized to the value of the sample at time point 0 from plants grown on thiamin free medium. Error bars represent standard deviation of triplicate qRT-PCR analyses. […] (B) qRT-PCR analysis of THIC type III RNAs. Plant material and data normalization are as described for (A).
The amount of THIC transcripts was established by using quantitative RT-PCR (qRT-PCR) to address whether transcript levels respond to increased thiamin concentrations. A. thaliana seedlings were supplemented with various amounts of thiamin and the different THIC transcript types were detected using specific primer combinations. The primer combination amplifying THIC-II also can bind to a subset of THIC-I RNAs that have undergone splicing of the first 3′ UTR intron.
Arabidopsis thaliana ecotype Columbia-0 plants were grown with soil at 23° C. in a growth chamber under 16/8 h (light/dark) photoperiod with 60% humidity unless otherwise stated. For seedling experiments, plants were grown on basal MS medium (Murashige and Skoog, 1962) supplemented with 2% sucrose and varying concentrations of thiamin and under continuous light unless otherwise specified. N. benthamiana plants for leaf infiltration assays were grown on soil for 3 to 5 weeks under continuous light.

[6] = target: full-length TPP aptamer from A. thaliana; settings: read-out: apparent dissociation constant (KD) of full-length aptamer for TPP; cited from earlier work
[7] = tested on: TPP aptamer with 5' splice site region of THIC mRNA from A. thaliana; assay: In-line probing of TPP aptamer with 5' flank (nts -14-261 relative to 5' splice site); type: binding, Arabidopsis thaliana; settings: 10 μM TPP
Procedure: (A) TPP causes changes in RNA structure near to the 5′ splice site, which is important for the formation of THIC type III RNA. For in-line probing, a 5′ ^32P-labelled RNA starting 14 nts upstream of the 5′ splice site (+1) and expanding to the 3′ end of the TPP aptamer (nucleotides-14-261) from A. thaliana was incubated in the absence (−) or presence (+) of 10 μM TPP and the resulting spontaneous cleavage products were separated by polyacrylamide gel electrophoresis. Markers are RNAs partially digested with RNase T1 (T1) or alkali (^−OH). The graph depicts the relative band intensities in the lanes indicated. (B) Base-pairing potential between the 5′ splice site region and the P4-P5 stems of the TPP aptamer (SEQ ID NOs:34-47; complementary nucleotides are shaded). Stretches of complementary nucleotides are also present in all other plant THIC mRNA sequences available. […]
In-line probing assays were conducted essentially as described previously (Sudarsan et al., 2003; Winkler et al., 2002). […] Cleavage products were resolved by denaturing 10% PAGE, visualized by PhosphorImager (GE Healthcare), and quantitated using ImageQuant software. The apparent KD value, reflecting the concentration of TPP needed to half-maximally modulate RNA structure, was determined by plotting the normalized fraction of RNA cleaved versus the logarithm of TPP concentration.

[8] = 26 h after spraying with 50 μM thiamin
[9] = four hours after spraying seedlings with 50 μM thiamin

- binding to the altered aptamer ([2]; data not shown): does not bind
SMILES: Cc1ncc(C[n+]2csc(CCO)c2C)c(N)n1 [thiamin]
- expression of reporter gene (GUS) driven by the THIC promoter [1]: not altered
- THIC-I RNA levels (Northern blot) [3]: remain relatively unchanged
- THIC-III RNA levels (Northern blot) [3]: remain relatively unchanged
- THIC-II levels (Northern blot) ([3]; same samples as FIG. 3A): decrease
- amount of endogenous THIC transcripts relative to control levels ([4]; 0.02% thiamin, 72 h, qRT-PCR): approximately 20%
- amount of EGFP transcripts relative to control levels ([4]; WT construct, 0.02% thiamin, 72 h, qRT-PCR): approximately 20%
- EGFP fluorescence in leaves ([4]; WT construct, 0.02% thiamin, rosette stage leaves): decreased
- responsiveness of reporter to thiamin application compared to WT construct ([4]; mutant aptamer M2, 0.02% thiamin 72 h): reduced
- responsiveness of reporter to thiamin application compared to WT construct ([4]; mutant aptamer M3, 0.02% thiamin 72 h): complete loss
- responsiveness of reporter to thiamin application compared to WT construct ([4]; mutant aptamer M4, 0.02% thiamin 72 h): complete loss
- THIC-II level [5, 8]: decreased even further
- total THIC RNA level [5, 8]: decreased even further
- increase in THIC-III ([5]; after spraying with 50 μM thiamin, early phase (4 h)): more pronounced in the early phase
- THIC-II amount relative to absence of added thiamin [5, 9]: 50%
- total THIC RNA amount relative to absence of added thiamin [5, 9]: 50%
- THIC-I transcripts copy number ([5]; medium containing 1 mM thiamin): little or no change
- THIC-II transcripts ([5]; medium containing 1 mM thiamin): equivalent reduction
- THIC-III transcripts copy number ([5]; medium containing 1 mM thiamin): little or no change
- circadian rhythm of THIC expression ([5]; medium supplemented with 100 μM thiamin, continuous light 48 h): not affected
- total amount of THIC transcripts relative to seedlings grown without thiamin supplementation ([5]; seedlings grown on medium containing 1 mM thiamin, 14 days): approximately 20%

- loss in ligand-binding affinity versus full-length aptamer ([2]; altered aptamer vs full-length aptamer): more than three orders of magnitude
- Kd ([2]; in-line probing, spliced aptamer of THIC-III, read-out: apparent KD of the altered aptamer for TPP): ~60 µM
- TPP binding by mutant M1 of the altered aptamer ([2]; mutation M1 in type III construct): completely abolish TPP binding
- TPP binding by mutant M2 of the altered aptamer ([2]; mutation M2 in type III construct): completely abolish TPP binding
SMILES: Cc1ncc(C[n+]2csc(CCO[P@](=O)(O)OP(=O)(O)O)c2C)c(N)n1 [TPP, thiamine pyrophosphate]
- Kd [6]: ~0.05 µM
- structural modulation of nucleotides near the 5' splice site [7]: increase in structural flexibility
